The values below come from US20250108036A1, “COMPOSITIONS FOR REMOVING SENESCENT CELLS AND USES THEREOF” (LIFECEUTIX CO., LTD., priority 2021, published 2025).

The test system of one data set is SAOS-2. Put plainly: senescent SAOS-2 tumor size in mice (Example 2-3). The format is in vivo, BALB/c nude mice. The settings on record: doxorubicin 10 mg/kg i.p.; after 10 days LX-112 100 mg/kg oral daily 21 days or repeated doxorubicin. As to the method: After 7-week-old male BALB/c nude mice (purchased from KRIBB Laboratory Animal Resource Center) were adapted to the experimental environment for one week, the mice were randomized into an experimental group and a control group. SAOS-2 (10^6 cells), a human osteosarcoma cancer cell line cultured in the same manner as Example 2-1, was mixed with PBS (purchased from Welgene) and then anesthetized using 2% isoflurane (purchased from Sigma). It was administered subcutaneously to mice. When the size of the tumor reached about […], doxorubicin was mixed at a concentration of 10 mg/kg in a 1:1 solution of distilled water and PBS (pH 7.2) and administered intraperitoneally to induce tumor aging. After 10 days, LX-112 mixed with 0.5% CMC-Na solution (purchased from Sigma) at a concentration of 100 mg/kg was orally administered daily for 21 days, and the size of the tumor was measured. The control group was repeatedly administered a solution mixed with doxorubicin, and then the size of the tumor was measured.

In data set [1] the test system is aging-related inflammation and fibrosis secretory factors (SASP). Nature of the data set: ProcartaPlex immunoassay of SASP factors in culture medium of senescent foreskin cells (Example 5). In kind it is cell-based, human. Particulars: LX-112 3 μM; senescent untreated = 100%. As to the method:
In the same manner as Example 3, natural aging of human foreskin cells was induced and treated with LX-112 at a concentration of 3 μM. Then the expression levels of aging-related inflammation and fibrosis secretory factors (SASP), IL1α, IL1β, IL6, IL10, MCP1, PAI1 VCAM1, MMP1, MMP2, MMP3, MMP12, and TGFβ, were measured using an immunoassay (ProcartaPlex Immunoassay, purchased from Thermo Fisher Scientific) with the obtained culture medium. […] Table 17 calculates the amount of each factor after inducing aging to 100% and compares it with the amount of each factor after treatment with LX-112.

A further data set deals with IL6, CXCL1, CXCL10, IL1β. Nature of the data set: SASP mRNA qRT-PCR in doxorubicin-aged mice (Example 8-6). The format is in vivo, C57BL6J mice. Particulars: doxorubicin-aged mice, LX-112 70 mg/kg oral daily 21 days; DOX without LX = 100%. As to the method:
After adapting 8-week-old male C57BL6J mice (purchased from KRIBB Laboratory Animal Resource Center) to the experimental environment for 1 week, doxorubicin, an anticancer drug, was administered intraperitoneally at a concentration of 10 mg/kg, and mice that were induced to age for more than 10 days were assigned to an experimental group and a control group. LX-112 was mixed with 0.5% CMC-Na solution (purchased from Sigma) and administered orally at a concentration of 70 mg/kg daily for 21 days. The control group was administered only the solution in the same volume. After drug administration was completed, the method described in each Example below was performed.
Using cDNA synthesized in the same manner as Example 7-6, qRT-PCR was performed and analyzed for aging-related inflammation and fibrosis secretory factors (SASP) such as IL6, CXCL1, CXCL10, and IL1β. […] Table 45 calculates the mRNA amount of each factor after aging was induced by treatment with the anticancer drug as 100% and compared it with the mRNA amount of each factor after treatment with LX-112.

Data set [2] has as its system foreskin cells, replicative senescence (REP). Put plainly: CellTiter-Glo cell viability of replicative senescent foreskin cells (Example 3-2). In kind it is cell-based, human. Particulars: 3 days.
For data set [3], the system named is HMGN1. Put plainly: HMGN1 ELISA in culture medium of foreskin cells (Examples 10, 11; Tables 62, 63, 64). The format is cell-based, human. Particulars: for HMGN1 (pg/ml): senescent foreskin cells.
The test system of the next data set is senescent foreskin cells. Put plainly: survival of senescent foreskin cells treated with medium supernatant (secreted fluid) of compound-killed cells (Example 13, Tables 68, 69). In kind it is cell-based, human. Particulars: for Survival (%): supernatant-treated cells: senescent cells, after 3 days.
In data set [4] the test system is foreskin cells in which senescence was induced by doxorubicin. Nature of the data set: CellTiter-Glo cell viability of doxorubicin-induced senescent foreskin cells (Examples 1-2, 10, 11, 13; Tables 4, 63, 65). The format is cell-based, human. Particulars: for viability at 1.1 µM / viability at 10 µM: Homo sapiens, 72 h, read-out: Survival (%); for viability at 10 µM: LX-112 10 μM. A general note: Cellular ATP, detected with luciferase, serves as a proxy for viable cell number.
Experimental: (§1) After 3 days, cell viability was measured using CellTiter-Glo Luminescent Cell Viability Assay (Promega) or light microscopy.

Data set [5] deals with foreskin cells in which senescence was not induced. Nature of the data set: CellTiter-Glo growth of foreskin cells in which senescence was not induced (Tables 5, 12). Particulars: 3 days.
Experimental: as §1
For data set [6], the system named is HMGN1. Nature of the data set: HMGN1 ELISA in culture medium of A549 cancer cells (Example 12, Table 66). In kind it is cell-based, human. Particulars: Homo sapiens, A549, doxorubicin-induced senescent A549 cells, test compound 30 μM, ELISA, DMSO = 100; read-out: HMGN1 (amount of HMGN1 secreted in the cell culture). A general note: An ELISA detects its analyte on a solid surface through an enzyme-linked reagent.

The subject of data set [7] is senescent cancer (A549) cells. Put plainly: survival of senescent A549 cancer cells treated with medium supernatant of compound-killed cancer cells (Example 14, Table 70). The format is cell-based, human. As to the method: In the same way as Examples 12 and 13, senescence of cancer (A549) cells was induced by treatment with doxorubicin or the control group (DMSO), and the cells were cultured. […] In the same manner as in Example 13, the medium supernatants comprising secreted fluid from normally proliferating and senescent cancer cells was obtained. Normally proliferating and senescent-induced cancer cells were treated with the medium supernatants.
Furthermore, other test compounds were used in the same manner in Example 12 above at high concentrations of 30 μM, 90 μM, and 270 μM, respectively, and the cultured medium supernatant comprising secreted fluid from aged cancer cells that were killed were obtained. As a result of measuring the degree of death of aged cancer cells, it was confirmed that aged cancer cells can be effectively removed, as shown in Example 12 and Table 65.

Like-named read-outs stand apart in the source and are kept apart here.

Take `O=c1c2ccccc2[se]n1CCn1[se]c2ccccc2c1=O` [LX-112, 1,2-[bis(1,2-benzisoselenazolone-3(2H)-ketone)]ethane]: the “Tumor Diameter (mm)” value in the data set with SAOS-2 is reported as 6.2 (±4.8) mm. Moreover, in [1], the “Protein (%) IL1α” value is 57 (±5) %, the “Protein (%) IL1β” value is recorded as 46 (±6) %, the “Protein (%) IL6” value is on record as 41 (±4) % and the “Protein (%) IL10” value is recorded as 57 (±7) %. In [1], the “Protein (%) MCP1” value was 38 (±8) %, the “Protein (%) MMP1” value was 43 (±3) %, the “Protein (%) MMP2” value was 39 (±9) % and the “Protein (%) MMP3” value is reported as 38 (±8) %. For the same compound, in [1], the “Protein (%) MMP12” value is 41 (±6) %, the “Protein (%) PAI1” value is given as 41 (±4) %, the “Protein (%) TGFβ” value was 49 (±9) % and the “Protein (%) VCAM1” value was 45 (±5) %. Further, in the data set on IL6, CXCL1, CXCL10, IL1β, the “mRNA (%) CXCL1, Liver” value is 68 (±21.1) %; the “mRNA (%) CXCL1, eWAT” value is 94.8 (±1.2)^ %; the “mRNA (%) CXCL10, Liver” value is 84 (±11.5) %; the “mRNA (%) CXCL10, eWAT” value is 74 (±11) %. Further, in the data set with IL6, CXCL1, CXCL10, IL1β, the “mRNA (%) IL1β, Liver” value is listed as 42 (±35.2) %; the “mRNA (%) IL1β, eWAT” value was 38 (±37) %; the “mRNA (%) IL6, Liver” value is 42 (±23.5) %; the “mRNA (%) IL6, eWAT” value is 48.6 (±12.5) %. The “Survival (%)” value in data set [2] (LX-112 1.1 μM) is 59 (±6) %. Moreover, in data set [2] (LX-112 10 μM), the “Survival (%)” value was 1 (±0.9) %. Moreover, the “HMGN1 (pg/ml)” value in the data set on HMGN1 [3] (10 μM, culture medium after 6 hours) is recorded as 262.45 (±23.4) pg/ml. The “HMGN1 secreted in the culture medium from dying senescent cells” value with HMGN1 [3] (ABT-263 1 μM or LX-112 10 μM, 6 hours) is listed as “greatly increased”. In the data set with HMGN1 [3] (LX-112 1.1 μM), the “HMGN1 (pg/ml)” value is reported as 129.7(±9.3) pg/ml. Moreover, in the data set with HMGN1 [3] (LX-112 10 μM), the “HMGN1 (pg/ml)” value is recorded as 262.45 (±23.4) pg/ml. The “death of senescent cells by medium supernatant (secreted fluid) of cells killed by the compound” value with senescent foreskin cells (supernatant from normally proliferating or senescent cells, survival after 3 days) is recorded as “selectively induced the death of senescent cells”. In [4] (LX-112 1.1 μM, 3 days), the viability at 1.1 µM was 67.2%. The viability at 1.1 µM in [4] (LX-112 1.1 μM, senescent foreskin cells) was found to be 67.2%. Also, the viability at 10 µM in [4] (3 days) is 1%. The viability at 10 µM in data set [4] (senescent foreskin cells) was found to be 1%. Moreover, in [5] (Table 5, LX-112 1.1 μM, N0 (cell number before treatment) = 100%), the “Growth (%)” value is recorded as 201 (±8) %. Also, the “Growth (%)” value in data set [5] (Table 5, LX-112 10 μM, N0 = 100%) was 123 (±8) %. In addition, the “Growth (%)” value in data set [5] (Table 12, LX-112 1.1 μM, N0 = 100%) is listed as 206 (±15) %. Moreover, in [5] (Table 12, LX-112 10 μM, N0 = 100%), the “Growth (%)” value is 122.7 (±16) %.
With `COC(=O)c1ccc([C@H]2c3[nH]c4ccccc4c3C[C@H](C(=O)OC)N2C(=O)CCl)cc1` [LX-405], the activity at 30 µM with HMGN1 [6] was 310%; with HMGN1 [3] (Homo sapiens, 30 μM test compound, doxorubicin-treated foreskin cells, DMSO = 100, read-out: HMGN1), 285%. The “Survival (%)” value is 98.2 (±2.8) % in data set [7] (supernatant from No Cells); 78.8 (±7.7) % in data set [7] (supernatant from death-induced proliferating cells (LX-405 30 μM)); 72.5 (±5.7) % in data set [7] (supernatant from death-induced senescent cells (LX-405 30 μM)); 102.8 (±4.6) % with senescent foreskin cells (supernatant from compound-treated medium without cells (No Cells)); 41.3 (±3.6) % in the data set with senescent foreskin cells (supernatant from death-induced proliferating foreskin cells (compound 30 μM)); 52.7 (±0.1) % with senescent foreskin cells (supernatant from death-induced senescent foreskin cells (compound 30 μM)). The “cell death, senescent cells” value in data set [4] (30 μM, 3 days) was “induced the death of most cells”. Moreover, in data set [4] (1.1 μM test compound, doxorubicin-induced senescent foreskin cells, CellTiter-Glo, 0 μM = 100), the viability at 1.1 µM is 4.9%. In addition, the “cell death, normally proliferating cells” value in [5] (30 μM) is given as “induced the death of most cells”.
